Reference: ChEMBL document CHEMBL1125856, “The Interaction of Anhydroalditols with Sweet-Almond -glucosidase and Escherichia coli -galactosidase: implications for the design of potent glycosidase inhibitors” (Bioorg Med Chem Lett, 1991)

T1: Beta-glucosidase (Prunus avium) (UniProt Q43014)
T1 sequence (whole entry): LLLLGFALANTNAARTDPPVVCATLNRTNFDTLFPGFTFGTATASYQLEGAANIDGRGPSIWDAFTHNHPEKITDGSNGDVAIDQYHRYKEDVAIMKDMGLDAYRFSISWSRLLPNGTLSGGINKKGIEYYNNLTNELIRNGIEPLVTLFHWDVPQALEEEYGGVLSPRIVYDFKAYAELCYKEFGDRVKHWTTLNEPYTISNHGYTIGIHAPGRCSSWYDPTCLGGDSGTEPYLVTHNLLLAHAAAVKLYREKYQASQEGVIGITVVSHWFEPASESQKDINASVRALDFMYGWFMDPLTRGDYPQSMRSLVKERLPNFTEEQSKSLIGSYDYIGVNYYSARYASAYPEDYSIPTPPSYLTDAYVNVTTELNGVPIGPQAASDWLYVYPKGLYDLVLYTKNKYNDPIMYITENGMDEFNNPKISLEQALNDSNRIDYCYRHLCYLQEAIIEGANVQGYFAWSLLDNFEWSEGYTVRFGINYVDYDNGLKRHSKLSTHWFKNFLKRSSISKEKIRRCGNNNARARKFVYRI


Assays:
Beta-galactosidase [1] = biological target: T2, Beta-galactosidase (Escherichia coli, UniProt Q8VNN2); test: Compound was evaluated for its binding affinity towards Beta-galactosidase
[2] = Ratio of binding affinity towards E-coli beta - galactosidase to that of km/kcat was determined
[3] = Ratio of binding affinity towards E-coli beta - galactosidase to that of Michaelis-Menten constant against E-coli beta-galactosidase
Beta-galactosidase [4] = biological target: T2, Beta-galactosidase; test: Compound was evaluated for its binding affinity towards E-coli Beta-galactosidase
[5] = biological target: T1, Beta-glucosidase (Prunus avium); test: (§1) Kinetic parameter Km/Kcat against Beta-glucosidase; parameters: unit not given here; details: Prunus dulcis
[6] = biological target: T1, Beta-glucosidase (Prunus avium); test: as §1; details: Prunus dulcis
[7] = substrate: OC[C@H]1OC[C@@H](O)[C@@H]1O; test: (§2) Michaelis-Menten constant against sweet almond Beta-glucosidase
[8] = substrate: OC[C@H]1OC[C@@H](O)[C@H]1O; test: as §2
[9] = substrate: OC[C@H]1OC[C@H](O)[C@@H](O)[C@@H]1O; test: as §2
[10] = substrate: OC[C@H]1OC[C@H](O)[C@@H](O)[C@H]1O; test: as §2
[11] = substrate: O[C@@H]1COC[C@H]1O; test: as §2
[12] = substrate: O[C@H]1[C@H](O)COC[C@@H]1O; test: as §2

T2 sequence (Q8VNN2 whole entry): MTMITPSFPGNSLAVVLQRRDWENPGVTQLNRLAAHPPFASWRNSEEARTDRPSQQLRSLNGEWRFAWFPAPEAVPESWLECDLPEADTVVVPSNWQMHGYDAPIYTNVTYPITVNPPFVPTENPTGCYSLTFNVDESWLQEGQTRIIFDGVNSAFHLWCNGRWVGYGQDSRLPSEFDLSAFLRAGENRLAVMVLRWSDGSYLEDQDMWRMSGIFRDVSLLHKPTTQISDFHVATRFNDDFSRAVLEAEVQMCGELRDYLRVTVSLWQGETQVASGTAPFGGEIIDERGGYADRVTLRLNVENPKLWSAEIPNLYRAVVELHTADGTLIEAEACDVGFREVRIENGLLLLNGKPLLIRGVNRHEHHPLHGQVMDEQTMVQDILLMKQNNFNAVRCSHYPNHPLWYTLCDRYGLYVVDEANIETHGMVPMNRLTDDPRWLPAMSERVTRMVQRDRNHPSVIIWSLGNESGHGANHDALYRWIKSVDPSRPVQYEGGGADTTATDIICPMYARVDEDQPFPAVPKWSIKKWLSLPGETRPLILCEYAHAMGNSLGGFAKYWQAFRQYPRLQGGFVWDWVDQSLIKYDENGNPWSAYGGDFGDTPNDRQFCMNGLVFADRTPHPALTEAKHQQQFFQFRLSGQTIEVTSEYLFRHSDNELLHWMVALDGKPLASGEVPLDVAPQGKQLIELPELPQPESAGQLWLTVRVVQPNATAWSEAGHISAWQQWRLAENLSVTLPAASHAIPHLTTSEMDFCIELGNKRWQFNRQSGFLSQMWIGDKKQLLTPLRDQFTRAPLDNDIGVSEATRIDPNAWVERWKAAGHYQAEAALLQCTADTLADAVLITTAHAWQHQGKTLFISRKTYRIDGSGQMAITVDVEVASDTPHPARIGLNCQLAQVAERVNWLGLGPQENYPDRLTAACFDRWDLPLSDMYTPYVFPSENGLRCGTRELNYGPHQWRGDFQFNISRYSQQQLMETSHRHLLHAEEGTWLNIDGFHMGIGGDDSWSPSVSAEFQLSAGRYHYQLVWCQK

Row | Molecule | Ki/(Km/Kcat) [2] | Ki/Km [3] | Ki (Beta-galactosidase [4]) [mM] | Km/Kcat [5] | further results
1 | OC[C@H]1OC[C@@H](O)[C@@H]1O | 240 | 1.6 |  |  | Ki (Beta-galactosidase [1]): 51 mM
2 | OC[C@H]1OC[C@H](O)[C@@H](O)[C@H]1O | 3.9e+08 | 154 | 7.4 |  | 
3 | OC[C@H]1OC[C@H](O)[C@@H](O)[C@@H]1O [1,5-Anhydrosorbitol] | 330 | 2.2 | 71 | 0.21 | Km/Kcat [6]: 0.019
4 | OC[C@H]1OC[C@@H](O)[C@H]1O | 1e+08 | 39.6 | 1.9 |  | 
5 | Beta-glucosidase (Prunus avium), Q43014 (protein) LLLLGFALANTNAARTDPPVVCATLNRTNFDTLFPGFTFGTATASYQLEGAANIDGRGPSIWDAFTHNHPEKITDGSNGDVAIDQYHRYKEDVAIMKDMGLDAYRFSISWSRLLPNGTLSGGINKKGIEYYNNLTNELIRNGIEPLVTLFHWDVPQALEEEYGGVLSPRIVYDFKAYAELCYKEFGDRVKHWTTLNEPYTISNHGYTIGIHAPGRCSSWYDPTCLGGDSGTEPYLVTHNLLLAHAAAVKLYREKYQASQEGVIGITVVSHWFEPASESQKDINASVRALDFMYGWFMDPLTRGDYPQSMRSLVKERLPNFTEEQSKSLIGSYDYIGVNYYSARYASAYPEDYSIPTPPSYLTDAYVNVTTELNGVPIGPQAASDWLYVYPKGLYDLVLYTKNKYNDPIMYITENGMDEFNNPKISLEQALNDSNRIDYCYRHLCYLQEAIIEGANVQGYFAWSLLDNFEWSEGYTVRFGINYVDYDNGLKRHSKLSTHWFKNFLKRSSISKEKIRRCGNNNARARKFVYRI |  |  |  |  | Km [7]: 2.5 mM; Km [8]: 15.7 mM; Km [9]: 2.5 mM; Km [10]: 15.7 mM; Km [11]: 3.1 mM; Km [12]: 3.1 mM

Continued, in another order:

Row | Ki/(Km/Kcat) [2] | Ki/Km [3] | Ki (Beta-galactosidase [4]) [mM] | Km/Kcat [5] | Molecule | further results
6 | 630000 | 1.2 |  | 6.7e-05 | C[C@H]1OC[C@H](O)[C@@H](O)[C@H]1O | 
7 | 77 | 5.1 | 77 | 1 | O[C@@H]1COC[C@H]1O | 
8 | 85 | 15.6 | 85 | 1 | O[C@H]1[C@H](O)COC[C@@H]1O | 
